In one assay the target is T1, CBL-B (Homo sapiens, UniProt Q13191).
T1 construct: endogenous in cells; host or cells: Jurkat HiBit-IL2 reporter cells, C-CBL knocked out by CRISPR
The assay is described as follows: Jurkat HiBit-IL2 assay (c-CBL KO), reporter cell line expressing CBL-B only. The assay is classed as cell-based. The note with it: geometric mean, read-out: C-CBL KO EC50 (nM) GMean. In short, it runs like this:
(§1)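 IL-2 secretion was measured by HiBiT luminescence after 1 h compound exposure (0.1% DMSO) and 4 h TCR/CD28 stimulation (final anti-CD3 1 μg/ml, anti-CD28 2 μg/ml, 37 °C) of Jurkat reporters lacking c-CBL or CBL-B. EC50 came from fold-of-effect versus stimulated-only cells, as geometric means across tests.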

For a further assay, the target named is T2, C-CBL (residues 46-435) (Homo sapiens, UniProt P22681).
T2 construct: Purified CBL-B (residues 36-427) and C-CBL (residues 46-435) proteins from baculovirus-infected insect cells; made in house; host or cells: baculovirus-infected insect cells
T2 sequence (P22681 46-435): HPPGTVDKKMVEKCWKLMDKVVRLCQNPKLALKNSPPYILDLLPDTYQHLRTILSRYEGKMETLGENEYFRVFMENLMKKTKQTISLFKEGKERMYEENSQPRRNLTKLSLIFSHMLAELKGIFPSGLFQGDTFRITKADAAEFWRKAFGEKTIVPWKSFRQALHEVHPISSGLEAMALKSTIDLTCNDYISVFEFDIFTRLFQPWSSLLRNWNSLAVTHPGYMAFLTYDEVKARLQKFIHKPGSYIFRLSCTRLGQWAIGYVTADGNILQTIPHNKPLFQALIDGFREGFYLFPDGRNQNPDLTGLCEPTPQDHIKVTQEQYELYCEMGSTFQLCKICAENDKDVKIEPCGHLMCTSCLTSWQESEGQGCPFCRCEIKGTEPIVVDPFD
Kind of assay: Ligand Displacement Assay (LDA), HTRF competitive binding against BODIPY-labeled fluorescent tracer, C-CBL. The note with it: geometric mean of the number of tests, read-out: C-CBL Ki (nM) GMean. In short, it runs like this:
(§2)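 Ki values, given as geometric means of repeated tests, come from TR-FRET displacement of a BODIPY-labelled tracer from terbium-streptavidin-bound, AviTag-biotinylated protein made in baculovirus-infected insect cells. Compounds ran as three-fold dilutions in duplicate, […], 2% DMSO.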

In another assay the target is T3, CBL-B (residues 36-427) (Homo sapiens, UniProt Q13191).
T3 construct: Purified CBL-B (residues 36-427) and C-CBL (residues 46-435) proteins from baculovirus-infected insect cells; made in house; host or cells: baculovirus-infected insect cells
Kind of assay: Ligand Displacement Assay (LDA), HTRF competitive binding against BODIPY-labeled fluorescent tracer, CBL-B. The note with it: geometric mean of the number of tests, read-out: CBL-B Ki (nM) GMean. In short, it runs like this: as §2

The target of a further assay is T4, C-CBL (Homo sapiens, UniProt P22681).
T4 construct: endogenous in cells; host or cells: Jurkat HiBit-IL2 reporter cells, CBL-B knocked out by CRISPR
Kind of assay: Jurkat HiBit-IL2 assay (CBL-B KO), reporter cell line expressing C-CBL only. The assay is classed as cell-based. Particulars: geometric mean, read-out: CBL-B KO EC50 (nM) GMean. In short, it runs like this:
as §1

Where [1] appears, read: C-CBL KO (expressing CBL-B only), Table 16b (further repetition).
Setting [2] is: c-CBL KO (CBL-B only), anti-CD3/anti-CD28 stimulation 4 hours, Table 16a.
[3] abbreviates: CBL-B KO (C-CBL only), anti-CD3/anti-CD28 stimulation 4 hours, Table 16a.
Setting [4] is: CBL-B KO (expressing C-CBL only), Table 16b (further repetition).

Read-outs that look alike come from different tables or passages of the source.

`CC(NC(=O)CO)c1nc(C(F)(F)F)cc2c(-c3cccc([C@H](c4nncn4C)C4CCC4)c3)n[nH]c12` (single isomer, unassigned) [Example I1]: the EC50 on CBL-B (setting [1]) was 29 nM; on CBL-B (setting [2]), 16 nM; on C-CBL (setting [3]) it was 182 nM; at C-CBL (setting [4]) it was 163 nM. Further, the Ki on C-CBL (residues 46-435) is 1.9 nM; on CBL-B (residues 36-427), 0.8 nM.

As for `CC(NC(=O)CO)c1nc(C(F)(F)F)cc2c(-c3cccc([C@H](c4nncn4C)C4CCC4)c3)n[nH]c12` (single isomer, unassigned) [Example I2], the EC50 on CBL-B (setting [2]) stood at 313 nM; on C-CBL (setting [3]) it was 2420 nM. The Ki on C-CBL (residues 46-435) stood at 64.5 nM; at CBL-B (residues 36-427), 7.8 nM.

Consider `C[C@H](O)C(=O)N[C@@H](C)c1nc(C(F)(F)F)cc2c(-c3cccc([C@H](c4nncn4C)C4CCC4)c3)n[nH]c12` (single isomer, unassigned) [Example I3], for which the EC50 on CBL-B (setting [1]) was found to be 6 nM; at CBL-B (setting [2]), 3 nM; on C-CBL (setting [3]) it was 17 nM; on C-CBL (setting [4]) it was 15 nM. In addition, the Ki on C-CBL (residues 46-435) amounted to 0.7 nM; on CBL-B (residues 36-427) it was 0.8 nM.

Turning to `CC(NC(=O)[C@H](C)O)c1nc(C(F)(F)F)cc2c(-c3cccc([C@H](c4nncn4C)C4CCC4)c3)n[nH]c12` (single isomer, unassigned) [Example I4], the EC50 on CBL-B (setting [1]) was 108 nM; at CBL-B (setting [2]) it was 48 nM; at C-CBL (setting [3]), 852 nM; on C-CBL (setting [4]), 491 nM. The figures for the Ki on C-CBL (residues 46-435) and at CBL-B (residues 36-427) were 24.3 nM and 3.4 nM, respectively.

For the compound `CC(NC(=O)[C@@H](C)O)c1nc(C(F)(F)F)cc2c(-c3cccc([C@H](c4nncn4C)C4CCC4)c3)n[nH]c12` (single isomer, unassigned) [Example I5], the EC50 on CBL-B (setting [1]) amounted to 62 nM; at C-CBL (setting [4]), 299 nM. For the same compound, the Ki at C-CBL (residues 46-435) turned out to be 22.9 nM; on CBL-B (residues 36-427), 2.7 nM.

In the case of `C[C@H](N[C@@H]1CC[C@H](O)C1)c1nc(C(F)(F)F)cc2c(-c3cccc([C@H](c4nncn4C)C4CCC4)c3)n[nH]c12` [Example C49, (1S,3R)-3-({(1S)-1-[3-{3-[(R)-cyclobutyl(4-methyl-4H-1,2,4-triazol-3-yl)methyl]phenyl}-5-(trifluoromethyl)-1H-pyrazolo[3,4-c]pyridin-7-yl]ethyl}amino)cyclopentanol], the EC50 on CBL-B (setting [2]) turned out to be 8 nM; on C-CBL (setting [3]), 135 nM. Besides, the Ki on C-CBL (residues 46-435) stood at 20.9 nM; on CBL-B (residues 36-427), 2.1 nM.

In the case of `C[C@@H](N[C@@H]1CC[C@H](O)C1)c1nc(C(F)(F)F)cc2c(-c3cccc([C@H](c4nncn4C)C4CCC4)c3)n[nH]c12` [Example C118, (1S,3R)-3-({(1R)-1-[3-{3-[(R)-cyclobutyl(4-methyl-4H-1,2,4-triazol-3-yl)methyl]phenyl}-5-(trifluoromethyl)-1H-pyrazolo[3,4-c]pyridin-7-yl]ethyl}amino)cyclopentanol], the EC50 on CBL-B (setting [1]) was determined as 46 nM; on C-CBL (setting [4]), 338 nM. The Ki on C-CBL (residues 46-435) was 25.5 nM; at CBL-B (residues 36-427), 2.1 nM.

Turning to `CC(C)[C@H]1CN(C)CCN1Cc1nc(C(F)(F)F)cc2c(-c3cccc([C@H](c4nncn4C)C4CCC4)c3)n[nH]c12` [Example D32, 3-{3-[(R)-cyclobutyl(4-methyl-4H-1,2,4-triazol-3-yl)methyl]phenyl}-7-{[(2S)-4-methyl-2-(propan-2-yl)piperazin-1-yl]methyl}-5-(trifluoromethyl)-1H-pyrazolo[3,4-c]pyridine], the EC50 at CBL-B (setting [1]) is 12 nM; on CBL-B (setting [2]), 8 nM; at C-CBL (setting [3]), 175 nM; on C-CBL (setting [4]), 134 nM. Besides, the inhibitory constant (Ki) was 10.2 nM on C-CBL (residues 46-435) and 1.3 nM on CBL-B (residues 36-427).

For the compound `CC(C)[C@H]1CNCCN1Cc1nc(C(F)(F)F)cc2c(-c3cccc([C@H](c4nncn4C)C4CCC4)c3)n[nH]c12` [Example D36], the values for the EC50 on CBL-B (setting [1]) and on C-CBL (setting [4]) were 52 nM and 454 nM, respectively. Also, the inhibitory constant (Ki) on C-CBL (residues 46-435) amounted to 16.4 nM; on CBL-B (residues 36-427), 1.4 nM.

For the origin of these results see patent publication US20260125375A1 (Pfizer Inc., priority 2022, published 2026).
